Laboratory results: US12103924B2, “Mitogen-activated protein kinase kinase (MEK) degradation compounds and methods of use” (Icahn School of Medicine at Mount Sinai, priority 2020, dated 2024)

Tested on: HT-29 cells
Assay: MTT cell viability assay, HT-29
Format: cell-based
Details: Homo sapiens, 72 h, MTT assay, 3 d treatment, serial dilutions
Method: MTT assay was conducted for HT-29 cells after 3 d treatment with indicated compounds with serial dilutions.
MTT assay was conducted for HT-29 (A) and SK-MEL-28 (B) cells after 3 d treatment with DMSO or indicated compounds with serial dilutions. Clonogenic assay was performed in HT-29 (C) and SK-MEL-28 (D) cells for 14 d treatment with DMSO or indicated compounds with 10, 30 and 100 nM, in duplicate, respectively. Cells were then stained by crystal violet.
Cells (2000 cells per well) were seeded into 96-well microplates. After 20 h, cells were treated with 0.1% DMSO or indicated serial dilutions of compounds in duplicate or triplicate for 3 days. Cell viability was tested using MTT (M6494, Thermo Fisher Scientific) or WST-8 reagent (CK04, Dojindo). Briefly, 12 mM MTT was prepared in PBS or WST-8 reagent was warmed up to room temperature. 20 μL MTT or CCK-8 was then added to each well and the plates were kept in incubator at 37° C. for 3 h in the dark. For the WST-8 assay, signal was obtained after the incubation. For the MTT assay, cell medium was replaced with 200 μL of DMSO after the incubation, and then cell plates were kept at 37° C. for another 30 min. Absorbance signals for MTT and WST-8 were read at 540 nm and 450 nm respectively, with 690 nm as reference performed with Infinite F PLEX plate reader (TECAN, Morrisville, NC, USA). GI50 values were analyzed using GraphPad Prism 8 from the data of at least three independent experiments.
HT-29 or SK-MEL-28 cells (300 cells per well) were seeded in 12-well plates. After 20 h, cells were treated with DMSO or indicated concentrations of compounds in duplicate for two weeks. Medium containing indicated compounds was changed every 3 days. Cells were then fixed and stained with the solution containing 6% (v/v) glutaraldehyde (G5882, Sigma-Aldrich) and 0.5% (w/v) crystal violet for 1 h. To remove the background color, the plates with stained cells were immersed in running water until clear colonies were observed. The plates were dried at RT. The staining images were obtained with Epson Perfection V600 Photo.

Row | Compound | GI50 [µM]
1 | O=C1CCC(N2C(=O)c3cccc(NCCOCCOCCOCCNCCCONC(=O)c4ccc(F)c(F)c4Nc4ccc(I)cc4F)c3C2=O)C(=O)N1 (centres unmarked) [CPD-021, N-((1-((2-(2,6-dioxopiperidin-3-yl)-1,3-dioxoisoindolin-4-yl)amino)-3,6,9-trioxa-12-azapentadecan-15-yl)oxy)-3,4-difluoro-2-((2-fluoro-4-iodophenyl)amino)benzamide] | 0.8 ± 0.2
2 | O=C1CCC(N2C(=O)c3cccc(NCCCCCNCCCONC(=O)c4ccc(F)c(F)c4Nc4ccc(I)cc4F)c3C2=O)C(=O)N1 (centres unmarked) [CPD-027, N-(3-((5-((2-(2,6-dioxopiperidin-3-yl)-1,3-dioxoisoindolin-4-yl)amino)pentyl)amino)propoxy)-3,4-difluoro-2-((2-fluoro-4-iodophenyl)amino)benzamide] | 1.8 ± 0.5
3 | Cc1ncsc1-c1ccc([C@H](C)NC(=O)[C@@H]2C[C@@H](O)CN2C(=O)[C@@H](NC(=O)CCCCCCCCCNCCCCONC(=O)c2ccc(F)c(F)c2Nc2ccc(I)cc2F)C(C)(C)C)cc1 [CPD-035, (2S,4R)-1-((S)-20-(tert-butyl)-1-(3,4-difluoro-2-((2-fluoro-4-iodophenyl)amino)phenyl)-1,18-dioxo-3-oxa-2,8,19-triazahenicosan-21-oyl)-4-hydroxy-N—((S)-1-(4-(4-methylthiazol-5-yl)phenyl)ethyl)pyrrolidine-2-carboxamide] | 0.055 ± 0.005
4 | O=C1CCC(N2C(=O)c3ccc(NCCOCCOCCNCCCONC(=O)c4ccc(F)c(F)c4Nc4ccc(I)cc4F)cc3C2=O)C(=O)N1 (centres unmarked) [CPD-048, N-(3-((2-(2-(2-((2-(2,6-dioxopiperidin-3-yl)-1,3-dioxoisoindolin-5-yl)amino)ethoxy)ethoxy)ethyl)amino)propoxy)-3,4-difluoro-2-((2-fluoro-4-iodophenyl)amino)benzamide] | 1.1 ± 0.3
5 | Cc1ncsc1-c1ccc(CNC(=O)[C@@H]2C[C@@H](O)CN2C(=O)[C@@H](NC(=O)COCCNCCCONC(=O)c2ccc(F)c(F)c2Nc2ccc(I)cc2F)C(C)(C)C)cc1 [CPD-002, (2S,4R)-1-((S)-14-(tert-Butyl)-1-(3,4-difluoro-2-((2-fluoro-4-iodophenyl)amino)phenyl)-1,12-dioxo-3,10-dioxa-2,7,13-triazapentadecan-15-oyl)-4-hydroxy-N-(4-(4-methylthiazol-5-yl)benzyl)pyrrolidine-2-carboxamide] | 4 ± 0.2
6 | Cc1ncsc1-c1ccc(CNC(=O)[C@@H]2C[C@@H](O)CN2C(=O)[C@@H](NC(=O)CCCCNCCCONC(=O)c2ccc(F)c(F)c2Nc2ccc(I)cc2F)C(C)(C)C)cc1 [CPD-007, (2S,4R)-1-((S)-14-(tert-Butyl)-1-(3,4-difluoro-2-((2-fluoro-4-iodophenyl)amino)phenyl)-1,12-dioxo-3-oxa-2,7,13-triazapentadecan-15-oyl)-4-hydroxy-N-(4-(4-methylthiazol-5-yl)benzyl)pyrrolidine-2-carboxamide] | 3 ± 0.5
7 | Cc1ncsc1-c1ccc(CNC(=O)[C@@H]2C[C@@H](O)CN2C(=O)[C@@H](NC(=O)CCCCCNCCCONC(=O)c2ccc(F)c(F)c2Nc2ccc(I)cc2F)C(C)(C)C)cc1 [CPD-009, (2S,4R)-1-((S)-15-(tert-butyl)-1-(3,4-difluoro-2-((2-fluoro-4-iodophenyl)amino)phenyl)-1,13-dioxo-3-oxa-2,7,14-triazahexadecan-16-oyl)-4-hydroxy-N-(4-(4-methylthiazol-5-yl)benzyl)pyrrolidine-2-carboxamide] | 2.1 ± 0.1
8 | Cc1ncsc1-c1ccc(CNC(=O)[C@@H]2C[C@@H](O)CN2C(=O)[C@@H](NC(=O)CCNCCCONC(=O)c2ccc(F)c(F)c2Nc2ccc(I)cc2F)C(C)(C)C)cc1 [CPD-006, (2S,4R)-1-((S)-12-(tert-Butyl)-1-(3,4-difluoro-2-((2-fluoro-4-iodophenyl)amino)phenyl)-1,10-dioxo-3-oxa-2,7,11-triazatridecan-13-oyl)-4-hydroxy-N-(4-(4-methylthiazol-5-yl)benzyl)pyrrolidine-2-carboxamide] | 5 ± 1.1
